From patent publication CN102850337A, “多氮唑联螺烯酮类化合物及其制备方法和用途” (Sichuan University, priority 2011, dated 2013)
Like-named read-outs stand apart in the source and are kept apart here.

Tests used:
[1] = system: skin cancer A431 cells, colon cancer HCT116 cells, gastric cancer MKN45 cells, ovarian cancer SKOV-3 cells [皮肤癌A431细胞、结肠癌HCT116细胞、胃癌MKN45细胞、卵巢癌SKOV-3细胞]; assay: CCK-8 in vitro tumour cell inhibition assay (Example 10, Table 1); type: cell-based; details: A431, HCT116, MKN45, SKOV-3 cells; statement on Table 1 (IC50)
[2] = system: human breast cancer MDA-MB-231 cells [人乳腺癌MDA-MB-231细胞]; assay: CCK-8 in vitro tumour cell inhibition assay, MDA-MB-231 (Example 11, Tables 2-4); type: cell-based

SMILES	IC50 ([2]; 48h)	IC50 ([2]; 72h)	inhibition at 5 µM ([2]; 48h, read-out: inhibition rate)	inhibition at 5 µM ([2]; 72h, read-out: inhibition rate)	inhibition at 50 µM ([2]; 24h, read-out: inhibition rate)	inhibition at 50 µM ([2]; 48h, read-out: inhibition rate)	inhibition at 50 µM ([2]; 72h, read-out: inhibition rate)	other results
O=C1C=CC2(C=C1)OCC(=O)N2c1nc(-c2ccccc2)nn1-c1ccccc1 [LHDYX-1, 4-(1,3-二苯基-1H-1,2,4-三氮唑-5-基)-1-氧-4-氮螺[4.5]癸-6,9-二烯-3,8-二酮]	2.88 µM	0.34 µM	–	–	–	–	–	inhibition of cancer cells compared with doxorubicin [1]: 对癌细胞的抑制作用高于目前临床中已广泛使用抗肿瘤药物阿霉素(Doxorubicin); inhibitory activity on cancer cells [1]: 不同程度的抑制活性; IC50 ([2]; 24h): 26 µM
COC1=CC(=O)C=CC12OCC(=O)N2c1nc(-c2ccccc2)nn1-c1ccccc1 (stereo not shown) [LHDYX-4, 4-(1,3-二苯基-1H-1,2,4-三氮唑-5-基)-6-甲氧基-1-氧-4-氮螺[4.5]癸-6,9-二烯-3,8-二酮]	–	–	4.3%	17.2%	42%	98.4%	100%	inhibition at 5 µM ([2]; 24h, read-out: inhibition rate (class symbol)): < 0%
Cn1nc(-c2ccccc2)nc1N1C(=O)COC12C=CC(=O)C=C2 [LHDYX-2, 4-(1-甲基-3-苯基-1H-1,2,4-三氮唑-5-基)-1-氧-4-氮螺[4.5]癸-6,9-二烯-3,8-二酮]	–	–	94.7%	96.2%	100%	93.5%	96.4%	inhibition at 0.05 µM ([2]; 24h, read-out: inhibition rate): 19.1%; inhibition at 0.05 µM ([2]; 48h, read-out: inhibition rate): 19%; inhibition at 0.05 µM ([2]; 72h, read-out: inhibition rate): 39.4%; inhibition at 0.5 µM ([2]; 24h, read-out: inhibition rate): 17.1%; inhibition at 0.5 µM ([2]; 48h, read-out: inhibition rate): 76.4%; inhibition at 0.5 µM ([2]; 72h, read-out: inhibition rate): 95.3%; inhibition at 5 µM ([2]; 24h, read-out: inhibition rate): 39.9%
Cn1nc(N2C(=O)COC23C=CC(=O)C=C3)nc1-c1ccccc1 [LHDYX-3, 4-(1-甲基-5-苯基-1H-1,2,4-三氮唑-3-基)-1-氧-4-氮螺[4.5]癸-6,9-二烯-3,8-二酮]	2.96 µM	1.46 µM	–	–	–	–	–	–
